Data from ChEMBL document CHEMBL6121067, “Mitophagy in Neurodegenerative Diseases: Mechanisms of Action and the Advances of Drug Discovery” (J Med Chem, 2025).
Converted amounts (≈) assume the structure as drawn.

Legend:
[1] = target: T1, Ubiquitin carboxyl-terminal hydrolase 30 (Homo sapiens, UniProt Q70CQ3); test: Inhibition of USP30 (unknown origin)
T1 sequence (Q70CQ3 whole entry): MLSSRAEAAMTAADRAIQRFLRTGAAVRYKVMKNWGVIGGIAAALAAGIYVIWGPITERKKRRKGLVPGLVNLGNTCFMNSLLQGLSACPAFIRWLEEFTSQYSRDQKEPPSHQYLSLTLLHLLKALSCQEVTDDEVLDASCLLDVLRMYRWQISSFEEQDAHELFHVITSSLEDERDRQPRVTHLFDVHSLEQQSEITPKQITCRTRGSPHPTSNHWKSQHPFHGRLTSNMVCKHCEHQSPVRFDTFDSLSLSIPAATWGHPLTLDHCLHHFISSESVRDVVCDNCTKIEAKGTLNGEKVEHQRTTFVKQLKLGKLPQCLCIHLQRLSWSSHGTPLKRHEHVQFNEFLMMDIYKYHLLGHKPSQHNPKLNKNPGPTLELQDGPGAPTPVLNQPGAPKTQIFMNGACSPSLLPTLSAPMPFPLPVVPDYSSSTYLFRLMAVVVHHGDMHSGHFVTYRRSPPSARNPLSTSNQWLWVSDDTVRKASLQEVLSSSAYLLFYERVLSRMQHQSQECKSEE

[2] = Solubility of compound at pH 6.8 incubated for 4 hrs by HPLC or LC-MS/MS analysis; type: physicochemical; settings: buffer
[3] = target: Serine/threonine-protein kinase PINK1, mitochondrial (Homo sapiens, UniProt Q9BXM7); test: Activation of full length recombinant PINK1 (unknown origin) extracted from Escherichia coli BL21 (DE3) by UV absorbance based analysis
Serine/threonine-protein kinase PINK1, mitochondrial, sequence (Q9BXM7 whole entry): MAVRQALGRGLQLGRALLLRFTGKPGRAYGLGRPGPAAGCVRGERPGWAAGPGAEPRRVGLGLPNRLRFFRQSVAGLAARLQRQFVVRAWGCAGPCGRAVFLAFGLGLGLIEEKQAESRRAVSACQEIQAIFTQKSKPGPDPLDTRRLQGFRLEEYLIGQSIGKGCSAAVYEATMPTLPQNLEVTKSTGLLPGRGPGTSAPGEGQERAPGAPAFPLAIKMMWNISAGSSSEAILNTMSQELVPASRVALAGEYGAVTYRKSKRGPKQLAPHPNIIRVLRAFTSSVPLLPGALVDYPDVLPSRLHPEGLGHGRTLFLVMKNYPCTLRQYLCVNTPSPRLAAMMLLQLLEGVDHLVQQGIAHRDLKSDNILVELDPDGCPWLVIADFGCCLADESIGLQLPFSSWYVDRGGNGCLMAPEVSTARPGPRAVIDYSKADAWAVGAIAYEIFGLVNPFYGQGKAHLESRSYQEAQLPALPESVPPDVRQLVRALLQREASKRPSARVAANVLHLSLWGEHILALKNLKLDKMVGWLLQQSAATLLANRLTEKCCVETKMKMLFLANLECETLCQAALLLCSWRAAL

Row | SMILES | IC50 [1] [nM] | solubility at 4 h [2] [µg/mL] | EC50 [3] [nM]
1 | COc1cc(C(=O)N[C@@H]2CCN(C#N)C2)ccc1-c1cnn(C)c1 | 15 | – | –
2 | N#CN1CC[C@@H](NC(=O)N2CC(c3ccn(-c4ccccc4)n3)C2)C1 | 15 | – | –
3 | N#CN1CC[C@H](CNC(=O)c2cc(-c3cccc(Cl)c3)no2)C1 | 15 | – | –
4 | CC(C)[C@H]1Cn2ncc(-c3ccc(C(=O)N4CCCc5ccccc54)cc3)c2CN1C(=O)Cc1ccccc1 | – | 3.6 (≈ 6.94 µM) | 2900
5 | C[C@@H](C(=O)N1Cc2c(-c3ccc(C(=O)N4CCCc5ccccc54)cc3)cnn2C[C@@H]1C)c1ccccc1 | – | 1.5 (≈ 2.97 µM) | 1500
6 | N#CN1CC[C@@H](NC(=O)c2cc(-c3ccccc3Oc3ccccc3)n[nH]2)C1 | 1.5 | – | –
7 | CCn1c(-c2ccc(OCC(=O)O)c(OC)c2)nc(-c2ccccc2)c1-c1ccccc1 | 5120 | – | –
8 | CO[C@@H](C(=O)N1Cc2c(-c3ccc(C(=O)N4CCCc5ccccc54)cc3)cnn2C[C@@H]1C(C)C)c1ccccc1 | – | 3.8 (≈ 6.93 µM) | 40
9 | CC(=O)N1Cc2c(-c3ccc(C(=O)N4CCCc5ccccc54)cc3)cnn2C[C@@H]1C | – | – | 14500
10 | CO[C@@H](C(=O)N1Cc2c(-c3ccc(C(=O)N4CCCc5ccccc54)cc3)cnn2C[C@@H]1C(C)C)c1cnn(C)c1 | – | 65 (≈ 118 µM) | 150
11 | COc1cc(-c2nc(-c3ccccc3)c(-c3ccccc3)n2C2CC2)ccc1OCC(=O)O | 8430 | – | –
